Measured values taken from patent US9758787B2, “Engineering microorganisms” (DSM NUTRITIONAL PRODUCTS AG, priority 2011, dated 2017).

How the values were obtained:
[1] = system: Thraustochytrium sp. ONC-T18; test: Effects of different antibiotics on growth of ONC-T18 on ONC-T18-GM0 agar plates (Example 3); type: cell-based; set-up: sensitivity of ONC-T18 cells to zeocin: dose or concentration left out as unconfirmed
Experimental: Thraustochytrium sp. ONC-T18 was grown on agar plates (20 g agar per liter ONC-T18-GM0). One loop of inoculum of ONC-T18 was inoculated into 50 mL of liquid ONC-T18-GM0, and the culture was incubated in a shaker incubator at 25° C. at 250 rpm for 36 hours. Half a milliliter of the culture was transferred into a 1.5 mL tube and vortexed at full speed for 30 seconds to break down cell clusters, then diluted in 50 mL sterilized water. One hundred microliters of the resulting solution was spread onto each ONC-T18-GM0 medium plate. Each plate contained one of various antibiotics at one of various concentrations. Plates were incubated at 25° C. and emergence and development of colonies were observed daily.

[2] = system: Thraustochytrium sp. ONC-T18; test: Effects of zeocin and salinity on colony numbers and colony diameter of ONC-T18 (Example 4); type: cell-based; conditions: for colony numbers: 10 days; for colony numbers / colony growth rates (diameter in mm): mean of two plates
Experimental: One hundred μL of ONC-T18 cell suspension diluted at 1:500 from a 2-day culture were spread onto ONC-T18-GM0 plates containing various concentrations of antibiotic zeocin and sea salt. Inoculated plates were incubated in a 25° C. incubator for 10 days. The numbers of the colonies on each plate were counted. […] In plates containing 8.5 g/L sea salt without zeocin, only one colony was observed. In plates containing 18 g/L sea salt without zeocin, colony numbers were similar to that of plates containing 35 g/L sea salt without zeocin. […] Therefore, for this work, 18 g/L sea salt was used to make ONC-T18-GM0 for selection of ONC-T18 transformants transformed with constructs bearing a zeocin-resistant gene expression cassette.

[3] = system: parental strain (the wild type strain) ONC-T18; test: Zeocin sensitivity, spotted colonies on agar plates, parental strain (Example 8); type: cell-based, Thraustochytrium sp. ONC-T18; conditions: ONC-T18-GM0 agar plates, 18 g/L sea salt
Experimental: (§1) A very small amount of inoculum of zeocin-resistant strains that had been transferred three times via colony passages on zeocin/ONC-T18-GM0 agar plates (as well as their parental strain or the wild type strain) was picked from colonies using a 10 μL pipette tip and re-suspended in 50 μL sterilized water in a 200 μL PCR tube. One μL of the cell suspension was spotted on ONC-T18-GM0 agar plates containing 18 g/L sea salt (15 g/L agar) and zeocin at a concentration ranging from 0 to 5000 μg/mL (Invitrogen, CA, USA). The diameters of the spotted colonies were measured on day 1, day 3, day 5, day 7, and day 8.

[4] = system: transformed ONC-T18 strains bearing the zeocin-resistance gene expression cassette; test: Zeocin sensitivity, spotted colonies on agar plates, transformed strains (Example 8); type: cell-based, Thraustochytrium sp. ONC-T18; conditions: 5000 μg/mL zeocin
Experimental: as §1

[5] = system: wild type ONC-T18 strains; test: Growth on zeocin plates after six colony passages without zeocin, wild type (Example 12); type: cell-based, Thraustochytrium sp. ONC-T18; conditions: zeocin 200 μg/mL media
Text: (§2) Transgene stability is important for certain applications of genetic engineering in industrial microbial strain improvement programs where microorganisms are used in pharmaceutical or industrial processes, and where product quantity and quality are paramount. We therefore carried out transgene stability estimate assays of transformed ONC-T18 strains. As for the growth rate assays described in Example 7, inocula of four strains of each transformation as well as their ancestor wild type strains were spotted on ONC-T18-GM0 agar plates in the absence of zeocin and incubated at 25° C. for seven days. (Each transformation had been performed using one of the five different plasmid constructs, each of which bears various zeocin-resistant gene expression cassettes driven by a combination of different promoters and terminators). Then, using the same method, strains were transferred on a new fresh ONC-T18-GM0 agar plate and incubated at 25° C. for 7 days; colony passages were carried out 6 times. Finally, strains were transferred back onto ONC-T18-GM0 agar plates either without or with zeocin at a concentration of 200 μg/mL media.

[6] = system: transformed ONC-T18 strains; test: Growth on zeocin plates after six colony passages without zeocin, transformed strains (Example 12); type: cell-based, Thraustochytrium sp. ONC-T18; conditions: zeocin 200 μg/mL media
Text: as §2

[7] = system: wild type strain of ONC-T18; test: Zeocin as mutagenic agent on ONC-T18 agar plates (Example 13); type: cell-based, Thraustochytrium sp. ONC-T18
Experimental: The marine protist wild type strain of ONC-T18 was chosen as a model system to test if zeocin would be effective to induce mutagenesis in this strain. One full loop of the inocula of ONC-T18, growing in the agar plates containing ONC-T18-GM0 medium[5 g/L yeast extract, 5 g/L peptone, 10 g/L D(+)-glucose, 35 g/L artificial sea salt, 1.25 mg/L trace elements (5 g/L NaH2PO4.H2O, 3.15 g/L FeCl3.6H2O, 4.36 g/L Na2EDTA.2H2O, 0.6125 mg/L CuSO4.5H2O, 0.0597 g/L Na2MoO4.2H2O, 0.022 g/L ZnSO4.7H2O, 0.01 g/L CoCl2.6H2O, 0.18 g/L MnCl2.4H2O, 13 μg/L H2SeO3, 2.7 mg/L NiSO4.6H2O, 1.84 mg/L Na3VO4 and 1.94 mg/L K2CrO4), 1.25 mg/L vitamins (1 mg/L vitamin B12, 1 mg/L biotin, 0.20 g/L thiamine HCl) and 20 g agar per liter], was inoculated into 50 mL liquid ONC-T18-GM0 medium, and incubated in a shaker incubator at 25° C. at 250 rpm for 36 hours. Half a milliliter of culture was transferred into a 1.5 mL tube and vortexed at full speed for 30 seconds, and then diluted in 50 mL sterilized water. One hundred microliters of the diluted inocula were respectively spread on the agar plates containing zeocin at various concentrations (0, 10, 30, 50, and 100 μg/mL). Plates were incubated at 25° C. incubator. The emergence and development of the colonies were observed daily. […] Under these conditions, zeocin was effective within the range of at least 10-200 μg/mL; higher concentrations may well also be effective. For example, concentrations in the range of 200-500 μg/mL or higher could work. […] Under the particular conditions utilized in the present Example, zeocin worked best at 50 μg/mL.

[8] = cited from earlier work

## Cc1c(N)nc([C@H](CC(N)=O)NC[C@H](N)C(N)=O)nc1C(=O)N[C@H](C(=O)N[C@H](C)[C@@H](O)[C@H](C)C(=O)N[C@H](C(=O)NCCC1=N[C@@H](c2nc(C(=O)NCCCCN=C(N)N)cs2)CS1)[C@@H](C)O)[C@@H](O[C@@H]1O[C@@H](CO)[C@@H](O)[C@H](O)[C@@H]1O[C@H]1O[C@H](CO)[C@@H](O)[C@H](OC(N)=O)[C@@H]1O)c1cnc[nH]1 [Zeocin, phleomycin D1]
[1]
  sensitivity of ONC-T18 cells to zeocin: highly sensitive
[1]; ONC-T18-GM0 agar plates
  effect on growth of ONC-T18 (summary in words): significantly inhibited the growth
[2]; ONC-T18-GM0 agar plates containing 18 g/L sea salt
  zeocin concentration that completely inhibited growth of ONC-T18: 30 µg/mL
[2]; ONC-T18-GM0 agar plates containing 35 g/L sea salt
  zeocin concentration needed for complete inhibition of ONC-T18: 100 µg/mL
[2]; salt 5 g/L, zeocin 10 μg/mL
  colony numbers: 0
  colony growth rates (diameter in mm): 0 mm
[2]; salt 5 g/L, zeocin 30 μg/mL
  colony numbers: 0
  colony growth rates (diameter in mm): 0 mm
[2]; salt 5 g/L, zeocin 50 μg/mL
  colony numbers: 0
  colony growth rates (diameter in mm): 0 mm
[2]; salt 5 g/L, zeocin 100 μg/mL
  colony numbers: 0
  colony growth rates (diameter in mm): 0 mm
[2]; salt 8.5 g/L, zeocin 10 μg/mL
  colony numbers: 0
  colony growth rates (diameter in mm): 0 mm
[2]; salt 8.5 g/L, zeocin 30 μg/mL
  colony numbers: 0
  colony growth rates (diameter in mm): 0 mm
[2]; salt 8.5 g/L, zeocin 50 μg/mL
  colony numbers: 0
  colony growth rates (diameter in mm): 0 mm
[2]; salt 8.5 g/L, zeocin 100 μg/mL
  colony numbers: 0
  colony growth rates (diameter in mm): 0 mm
[2]; salt 18 g/L, zeocin 10 μg/mL
  colony numbers: 11
  colony growth rates (diameter in mm): 4.1 mm
[2]; salt 18 g/L, zeocin 30 μg/mL
  colony numbers: 0
  colony growth rates (diameter in mm): 0 mm
[2]; salt 18 g/L, zeocin 50 μg/mL
  colony numbers: 0
  colony growth rates (diameter in mm): 0 mm
[2]; salt 18 g/L, zeocin 100 μg/mL
  colony numbers: 0
  colony growth rates (diameter in mm): 0 mm
[2]; salt 35 g/L, zeocin 10 μg/mL
  colony numbers: 22.5
  colony growth rates (diameter in mm): 4.1 mm
[2]; salt 35 g/L, zeocin 30 μg/mL
  colony numbers: 11
  colony growth rates (diameter in mm): 1.9 mm
[2]; salt 35 g/L, zeocin 50 μg/mL
  colony numbers: 5
  colony growth rates (diameter in mm): 0.6 mm
[2]; salt 35 g/L, zeocin 100 μg/mL
  colony numbers: 0
  colony growth rates (diameter in mm): 0 mm
[3]
  zeocin concentration at which the parental strain grew: ≤ 30 µg/mL
[4]; compared with 1000 μg/mL or less
  growth of transformed strains: most strains grew remarkably slower
[4]; e.g., FIG. 13 legend
  zeocin resistance of some transformant strains: highly resistant
[5]
  growth of wild type strains: none of the wild type strains were able to grow
[6]
  growth of transformed strains: only the transformed strains grew well
[7]; 50 μg/mL zeocin
  colonies seen per plate: Only a few of colonies were seen
  colony sectors with visible colony-morphology changes: observed in some of the colonies
[7]; 10, 30, and 50 μg/mL zeocin
  colony numbers per plate: gradually reduced
[7]; 30 to 50 μg/mL zeocin, six days post inoculation
  sizes of the colonies: gradually decreased
[7]; conditions of Example 13
  concentration at which zeocin worked best as mutagen: 50 µg/mL
  concentration range in which zeocin was effective as mutagen: 10 to 200 µg/mL
[8]; high salt concentrations
  stability of zeocin: unstable at high salt concentrations
[8]; water
  solubility of zeocin: water soluble
